In publication PMC10167348, “Structural mechanisms of TRPM7 activation and inhibition” (Nature Communications, 2023):
Where two headings read alike, the source gives them in different places.

Tests used:
TRPM7-N1098Q [1] = target: T1, TRPM7-N1098Q (Mus musculus, UniProt Q923J1, N1098Q); test: Aequorin-based Ca2+ influx assay, inhibition of TRPM7-mediated Ca2+ influx; format: cell-based
T1 construct: expressed in transfected cells; host or cells: HEK 293T
Description: (§1) Measurements of [Ca^2+]i were performed as reported previously with several modifications[2],[52],[54]. HEK 293T cells (mycoplasma test negative, ATCC #CRL3216) were maintained at 37 °C and 5% CO2 in DMEM supplemented with 10% fetal calf serum, 100 µg/ml streptomycin and 100 U/ml penicillin (all from Thermo Fisher Scientific). Cells cultured in six-well plates (~60% confluence) were transfected with 2 µg/dish Trpm7 plasmid DNA and 0.1 µg/dish pG5A plasmid DNA encoding eGFP fused to Aequorea victoria aequorin, using Lipofectamine 2000 (Thermo Fisher Scientific). Twenty-four hours after transfection, the cells were washed with Mg^2+-free HEPES-buffered saline (Mg^2+-free HBS) containing 140 mM NaCl, 6 mM KCl, 0.5 mM CaCl2, 10 mM HEPES (pH 7.4) and 5 mM glucose, and mechanically resuspended in the Mg^2+-free HBS. For reconstitution of aequorin, cell suspensions were incubated with 5 µM coelenterazine (Biaffin GmbH) in the Mg^2+-free HBS for 30 min at room temperature. Cells were washed twice by centrifugation at 600 rpm for 5 min (Heraeus Pico 17 microcentrifuge, Thermo Fisher Scientific), resuspended in the Mg^2+-free HBS and aliquoted into 96-well plates (1 × 10^5 cells per well). Luminescence was detected at room temperature using a FLUOstar OPTIMA microplate reader (BMG LABTECH GmbH). To monitor the NS8593- and VER155008-induced inhibition of TRPM7-mediated Ca^2+ influx, the extracellular concentration of Ca^2+ was increased to 5 mM by injecting the CaCl2-containing Mg^2+-free HBS in the absence or presence of the inhibitors. […] To study activation by naltriben, TRPM7-transfected cells were exposed to Mg^2+-free HBS containing different concentrations of the agonist. The experiments were terminated by lysing cells with 0.1% (v/v) Triton X-100 in the Mg^2+-free HBS to record the total bioluminescence. The bioluminescence rates (counts/s) were analyzed at 1-s intervals and calibrated as [Ca^2+]i values using the following equation:1 p[Ca^2+]i=0.332588(−log(k))+5.5593 where k represents the rate of aequorin consumption, i.e., counts/s divided by the total number of counts.
(§2) To determine the IC50 values for NS8593 and VER155008 (EC50 for naltriben), the data were fitted with the following logistic equation:2 Ec=Emin+Emax+Emin/1+c^h/IC50^h where E(c) is the functional effect at the concentration c of the compound, Emin is the minimal effect, Emax is the maximal effect, IC50 (EC50) is the concentration of the compound that produces the half-maximal effect, and h is the Hill coefficient. Fitting of dose-response curves was performed using GraphPad Prism 8.4.0. Data are presented as the mean ± SEM.

TRPM7-A981L = target: T2, TRPM7-A981L (Mus musculus, UniProt Q923J1, A981L); test: as above; format: cell-based
T2 construct: expressed in transfected cells; host or cells: HEK 293T
Description: as §1, §2

TRPM7-M991A = target: T3, TRPM7-M991A (Mus musculus, UniProt Q923J1, M991A); test: as above; format: cell-based
T3 construct: expressed in transfected cells; host or cells: HEK 293T
Description: as §1, §2

TRPM7-A981V = target: T4, TRPM7-A981V (Mus musculus, UniProt Q923J1, A981V); test: as above; format: cell-based
T4 construct: expressed in transfected cells; host or cells: HEK 293T
Description: as §1, §2

wild-type TRPM7 = target: T5, wild-type TRPM7 (Mus musculus, UniProt Q923J1); test: Whole-cell patch-clamp recordings in HEK 293T cells; format: cell-based; conditions: amplitude at +80 mV
T5 construct: expressed in transfected cells; host or cells: HEK 293T
Description: Patch-clamp experiments were performed as reported previously, with a few modifications[69],[70]. HEK 293T cells grown in 35-mm dishes to ~60% confluence were transiently transfected with Trpm7 cDNAs in the pIRES2-EGFP vector (2 µg/dish). Patch-clamp experiments were conducted 18–22 h after transfection with cells displaying EGFP fluorescence. Whole-cell currents were recorded using an EPC10 patch-clamp amplifier and PatchMaster software (Version V2x69, Harvard Bioscience). Voltages were corrected for a liquid junction potential of 10 mV. Currents were elicited by voltage ramps from –100 mV to +100 mV over 50 ms acquired at 0.5 Hz. The inward and outward current amplitudes were measured at –80 mV and +80 mV and were normalized to the cell size as pA/pF. The capacitance was measured using the automated capacitance cancellation function of EPC10. The standard extracellular solution contained 140 mM NaCl, 2.8 mM KCl, 1 mM CaCl2, 2 mM MgCl2, 10 mM HEPES-NaOH, and 11 mM glucose (all from Sigma-Aldrich). Solutions were adjusted to pH 7.2 using an FE20 pH meter (Mettler Toledo) and to 290 mOsm using a Vapro 5520 osmometer (Wescor Inc). […] For the experiment with naltriben, the intracellular solution contained 120 mM Cs-glutamate, 8 mM NaCl, 10 mM Cs-EGTA, 1.5 mM MgCl2, and 10 mM HEPES-CsOH. The intracellular solution was also adjusted to pH 7.2 and 290 mOsm. Data are presented as the mean ± SEM Unless indicated otherwise, data were compared by unpaired t-test (GraphPad Prism 8.4.0). For multiple comparisons, ordinary one-way ANOVA (GraphPad Prism 8.4.0) was used. Significance was accepted at P ≤ 0.05.

TRPM7-N1098Q [2] = tested on: TRPM7-N1098Q; set-up: method as in Schmidt et al., 2022, PMID: 35389104; conditions: ref Schmidt et al., 2022, PMID: 35389104; cited from earlier work
[3] = [NS8593] 0.3 µM, replicate values, read-out: TRPM7 activity, 100%
[4] = [NS8593] 0.7 µM, replicate values, read-out: TRPM7 activity, 100%

T3 sequence (Q923J1 whole entry M991A): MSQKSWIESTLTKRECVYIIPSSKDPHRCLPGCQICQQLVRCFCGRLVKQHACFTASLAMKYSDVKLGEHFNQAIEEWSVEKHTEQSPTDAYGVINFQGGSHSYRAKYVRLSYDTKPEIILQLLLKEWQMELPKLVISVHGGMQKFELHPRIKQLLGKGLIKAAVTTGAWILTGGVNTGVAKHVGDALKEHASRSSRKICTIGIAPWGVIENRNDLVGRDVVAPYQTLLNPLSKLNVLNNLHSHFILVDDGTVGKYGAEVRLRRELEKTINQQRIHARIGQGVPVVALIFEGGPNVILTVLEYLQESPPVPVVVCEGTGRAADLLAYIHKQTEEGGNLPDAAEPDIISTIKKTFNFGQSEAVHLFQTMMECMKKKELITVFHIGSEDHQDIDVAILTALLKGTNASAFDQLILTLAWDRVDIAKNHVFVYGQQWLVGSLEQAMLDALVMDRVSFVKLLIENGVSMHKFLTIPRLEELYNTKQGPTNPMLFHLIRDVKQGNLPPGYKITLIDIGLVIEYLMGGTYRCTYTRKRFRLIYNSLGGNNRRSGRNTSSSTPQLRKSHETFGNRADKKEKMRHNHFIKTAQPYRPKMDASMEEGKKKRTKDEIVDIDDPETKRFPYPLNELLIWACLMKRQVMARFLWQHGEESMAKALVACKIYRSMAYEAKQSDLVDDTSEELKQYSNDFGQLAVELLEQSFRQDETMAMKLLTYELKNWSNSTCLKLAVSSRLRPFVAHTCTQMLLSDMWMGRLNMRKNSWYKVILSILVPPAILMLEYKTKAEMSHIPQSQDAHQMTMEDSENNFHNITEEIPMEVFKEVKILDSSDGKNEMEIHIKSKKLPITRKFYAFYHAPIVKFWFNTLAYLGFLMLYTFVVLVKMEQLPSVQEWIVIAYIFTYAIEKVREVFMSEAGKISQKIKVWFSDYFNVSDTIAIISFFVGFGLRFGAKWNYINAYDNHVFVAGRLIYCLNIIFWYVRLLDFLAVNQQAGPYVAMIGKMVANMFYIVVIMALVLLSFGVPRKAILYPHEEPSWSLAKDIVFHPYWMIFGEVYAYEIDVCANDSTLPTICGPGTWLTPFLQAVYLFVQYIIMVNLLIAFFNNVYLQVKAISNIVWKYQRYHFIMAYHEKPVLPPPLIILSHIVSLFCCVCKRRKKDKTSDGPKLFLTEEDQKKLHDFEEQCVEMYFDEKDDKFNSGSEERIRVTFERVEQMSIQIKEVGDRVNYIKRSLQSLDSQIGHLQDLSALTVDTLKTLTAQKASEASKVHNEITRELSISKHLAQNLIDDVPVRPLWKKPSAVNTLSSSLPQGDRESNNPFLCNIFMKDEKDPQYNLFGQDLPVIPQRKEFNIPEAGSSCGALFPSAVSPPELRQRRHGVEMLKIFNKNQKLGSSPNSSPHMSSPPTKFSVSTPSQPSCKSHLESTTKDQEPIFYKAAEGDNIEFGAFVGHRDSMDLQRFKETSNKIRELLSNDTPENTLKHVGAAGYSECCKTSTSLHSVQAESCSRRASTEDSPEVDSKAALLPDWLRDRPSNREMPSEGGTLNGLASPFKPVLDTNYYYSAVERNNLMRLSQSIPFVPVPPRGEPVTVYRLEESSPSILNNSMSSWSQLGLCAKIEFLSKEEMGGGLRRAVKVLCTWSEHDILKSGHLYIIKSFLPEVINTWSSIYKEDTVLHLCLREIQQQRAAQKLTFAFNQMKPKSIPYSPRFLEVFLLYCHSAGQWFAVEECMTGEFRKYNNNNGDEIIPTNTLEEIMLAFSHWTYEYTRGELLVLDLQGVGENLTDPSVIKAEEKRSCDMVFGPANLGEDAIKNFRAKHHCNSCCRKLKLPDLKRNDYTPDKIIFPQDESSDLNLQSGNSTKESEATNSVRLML
T1 sequence (Q923J1 whole entry N1098Q): as the sequence (Q923J1 whole entry M991A) above, with A991M, N1098Q counted along it
T2 sequence (Q923J1 whole entry A981L): as the sequence (Q923J1 whole entry M991A) above, with A981L, A991M counted along it
T4 sequence (Q923J1 whole entry A981V): as the sequence (Q923J1 whole entry M991A) above, with A981V, A991M counted along it
T5 sequence (Q923J1 whole entry): as the sequence (Q923J1 whole entry M991A) above, with A991M counted along it

c1ccc2c(c1)CCC[C@H]2Nc1nc2ccccc2[nH]1 [NS8593]
remaining activity at 0.3 µM (TRPM7-N1098Q [1]; N1097Q (so in the source), [NS8593] 0.3 µM, replicate values, read-out: TRPM7 activity, 100%): 90.4% | remaining activity at 0.5 µM (TRPM7-N1098Q [1]; N1097Q (so in the source), [NS8593] 0.5 µM, replicate values, read-out: TRPM7 activity, 100%): 95% | remaining activity at 0.7 µM (TRPM7-N1098Q [1]; N1097Q (so in the source), [NS8593] 0.7 µM, replicate values, read-out: TRPM7 activity, 100%): 87.7% | remaining activity at 1 µM (TRPM7-N1098Q [1]; N1097Q (so in the source), [NS8593] 1.0 µM, replicate values, read-out: TRPM7 activity, 100%): 82.4% | remaining activity at 5 µM (TRPM7-N1098Q [1]; N1097Q (so in the source), [NS8593] 5.0 µM, replicate values, read-out: TRPM7 activity, 100%): 64.3% | remaining activity at 7 µM (TRPM7-N1098Q [1]; N1097Q (so in the source), [NS8593] 7.0 µM, replicate values, read-out: TRPM7 activity, 100%): 59.4% | remaining activity at 10 µM (TRPM7-N1098Q [1]; N1097Q (so in the source), [NS8593] 10.0 µM, replicate values, read-out: TRPM7 activity, 100%): 43.2% | TRPM7 activity, 100% (TRPM7-N1098Q [1]; N1097Q (so in the source), [NS8593] 50.0 µM, replicate values): 0.0% | remaining activity at 50 µM (TRPM7-N1098Q [1]; N1097Q (so in the source), [NS8593] 50.0 µM, replicate values, read-out: TRPM7 activity, 100%): 0% | Hill coefficient (TRPM7-N1098Q [1]; N1098Q, antagonist, mean ± SEM): –0.93 ± 0.20 | IC50 (TRPM7-N1098Q [1]; N1098Q, antagonist, mean ± SEM): 20.5 ± 10.7 µM | remaining activity at 0.3 µM (TRPM7-A981L; [3]): 105% | remaining activity at 0.7 µM (TRPM7-A981L; [4]): 114% | remaining activity at 1 µM (TRPM7-A981L; [NS8593] 1.0 µM, replicate values, read-out: TRPM7 activity, 100%): 112% | remaining activity at 3 µM (TRPM7-A981L; [NS8593] 3.0 µM, replicate values, read-out: TRPM7 activity, 100%): 99.4% | Hill coefficient (TRPM7-A981L; antagonist, mean ± SEM): –1.61 ± 0.45 | IC50 (TRPM7-A981L; antagonist, mean ± SEM): 11.6 ± 2.75 µM | remaining activity at 0.7 µM (TRPM7-M991A; M991A in the presence of 10 µM VER155008, [NS8593] 0.7 µM, replicate values, read-out: TRPM7 activity, 100%): 77% | remaining activity at 1 µM (TRPM7-M991A; M991A in the presence of 10 µM VER155008, [NS8593] 1.0 µM, replicate values, read-out: TRPM7 activity, 100%): 61.9% | remaining activity at 3 µM (TRPM7-M991A; M991A in the presence of 10 µM VER155008, [NS8593] 3.0 µM, replicate values, read-out: TRPM7 activity, 100%): 17.1% | remaining activity at 5 µM (TRPM7-M991A; M991A in the presence of 10 µM VER155008, [NS8593] 5.0 µM, replicate values, read-out: TRPM7 activity, 100%): 11.9% | remaining activity at 1 µM (TRPM7-M991A; M991A without VER155008, [NS8593] 1.0 µM, replicate values, read-out: TRPM7 activity, 100%): 28.8% | Hill coefficient (TRPM7-M991A; M991A, antagonist, no added second inhibitor, mean ± SEM): –1.24 ± 0.15 | IC50 (TRPM7-M991A; M991A, antagonist, no added second inhibitor, mean ± SEM, read-out: IC50): 0.59 ± 0.05 µM | Hill coefficient (TRPM7-M991A; M991A, in the presence of 10 µM VER155008, mean ± SEM): –1.43 ± 0.11 | remaining activity at 0.3 µM (TRPM7-A981V; [3]): 98.9% | remaining activity at 0.7 µM (TRPM7-A981V; [4]): 97.4% | remaining activity at 7 µM (TRPM7-A981V; [NS8593] 7.0 µM, replicate values, read-out: TRPM7 activity, 100%): 81.9% | Hill coefficient (TRPM7-A981V; antagonist, mean ± SEM): –1.45 ± 0.50 | IC50 (TRPM7-A981V; antagonist, mean ± SEM, read-out: IC50): 21.9 ± 12.3 µM | amplitude of TRPM7-mediated currents in the presence of inhibitor (wild-type TRPM7; 10 µM inhibitor, 450-s exposure): greatly reduced

Oc1ccc2c3c1O[C@H]1c4oc5ccccc5c4C[C@@]4(O)[C@@H](C2)N(CC2CC2)CC[C@]314 [Naltriben, naltriben]
response of the N1098Q variant to the agonist (TRPM7-N1098Q [2]): did not respond | whole-cell currents in the presence of agonist (wild-type TRPM7; 500 μM NTB, 170-s application): dramatically increased
